Patent US9962341B2, “Active pharmaceutical ingredient (API) comprising cannabinoids for use in the treatment of cancer” (GW Pharma Limited, priority 2014, dated 2018)
Read-outs that look alike come from different tables or passages of the source.

Test system: MDA-MB-231
Assay: Cell viability (CellTiter-Blue, 72 h), MDA-MB-231 breast cancer cells
Type: cell-based
Conditions: for IC50: Homo sapiens; for effect (but only 50% effect): extent of effect reached
Protocol: The cell lines tested in this Example were as follows. Breast cancer: MDA-MB-231; SK-BR3; and BT474. Liver cancer: HepG2.
The phytocannabinoids were tested alone and in various ratioed combinations in media containing final concentrations of 10% and 1% foetal bovine serum at 72 h for the breast and prostate cancer lines and 1% foetal bovine serum for the liver cancer line HepG2.
Each tumour cell line was maintained in vitro in RPMI 1640+10% heat inactivated FBS and 2 mM L-glutamine (growth media) at 37° C. in 5% CO2 and humidified conditions. The cells were harvested, washed, re-suspended into growth medium and counted. The cells were re-suspended into assay media (RPMI 1640+5% heat inactivated FBS+ and 2 mM L-glutamine) at 8×104-2×10^5 cells/ml (dependent upon cell type) and plated into the middle 240 wells of 384 well tissue culture plates (Corning CellBind, black-wall plates) 12.5 μl/well aliquots; 62.5 μl of growth media was aliquoted into the outer wells. There were 4 plates for each cell line. The plates were incubated overnight at 37° C., in 5% humidified CO2.
The phytocannabinoid test compounds were prepared in 100% DMSO vehicle at a stock concentration of 10 mM.
Starting with the 10 mM stock, the compounds were diluted to 125 μM in FBS-free growth media.
These were diluted in FBS-free growth media to 125 μM before serial dilution.
5 volumes of CBD 10 mM stock was added to 1 volume of the other agent (also at 10 mM) and 4 volumes of DMSO. This made a final concentration of 5 mM:1 mM. This was then diluted in FBS-free growth media so the top concentration of CBD would be 125 μM (before serial dilution). Each compound and compound combination stock was serially diluted in FBS-free growth media (containing 1.25% v/v DMSO) from 125 μM to 41.7, 13.89, 4.63, 1.54, 0.514, 0.171, 0.057 and 0.019 μM (1.25× final assay concentrations). Vehicle was prepared at equivalent dilutions in assay media. The top final concentration of compound in the assay was always 100 μM so CBD5:1CBG was 100 μM CBD and 20 μM CBG.
Taxotere SOC was prepared at a stock concentration of 1 mM in 100% DMSO. Taxotere was serially diluted from the stock solution into FBS-free growth media to 12.5 μM, then serially diluted in FBS-free growth media containing 1.25% DMSO to 4.17, 1.39, 0.46, 0.154, 0.051, 0.017, 0.006, 0.002 μM (1.25× final assay concentrations).
The plates were incubated for 72 h at 37° C. in 5% humidified CO2. To develop the plates, at 72 h, 10 μl of CellTiter-Blue™ reagent was added to each test/blank well. The plates were incubated at 37° C., 5% humidified CO2. Fluorescence was measured using a Flex II Station plate reader (570 nm excitation wavelength, 600 nm emission wavelength, 590 nm cut-off) after 3 h.
The experimental conditions were the same as the experiment above, with the same compound dilutions and volumes for plating but using growth media containing 10% FBS rather than FBS-free media.
The raw data values expressed in relative fluorescent units were normalised to the vehicle for each individual plate and any reduction in fluorescence indicated a decrease in viability.
The data were analysed in GraphPad PRISM using a non-linear sigmoidal plot with variable slope (asymmetric five point linear regression) and where possible an IC50 value for each single compound and combination was generated.
For the calculation, raw data values expressed in relative fluorescent units were normalised to the vehicle for each individual plate (set as 0%) and the reduction in fluorescence calculated as an increase in inhibition of viability.
The data was formatted in Excel for each assay plate so that the average effect at each concentration for each separate phytocannabinoid and each of the combinations could be determined.
The mean data at each concentration of CBD was imported into the analysis package Calcusyn. Calcusyn software was designed by M. Hayball and C.

[1] = MDA-MB-231, 72 h, read-out: IC50 values, MDA-MB-231, 1% FBS, 72 h
[2] = MDA-MB-231, 72 h, read-out: IC50 values, MDA-MB-231, 10% FBS, 72 h
[3] = MDA-MB-231, read-out: Dm (median effect dose), MDA-MB-231, 1% FBS, Calcusyn median-effect analysis

Row | Structure (SMILES) | IC50 [1] [µM] | IC50 [2] [µM] | IC50 [3] [µM] | IC50 values (MDA-MB-231, 10% FBS, 72 h) | effect (but only 50% effect) (MDA-MB-231, 1% FBS) | effect (but only 50% effect) (MDA-MB-231, 10% FBS)
1 | CCCc1cc(O)c2c(c1)OC(C)(C)[C@@H]1CCC(C)=C[C@@H]21 [THCV, Tetrahydrocannabivarin] | 14.4 | 36 | 39 | – | – | –
2 | C=C(C)[C@@H]1CCC(C)=C[C@H]1c1c(O)cc(CCCCC)c(C(=O)O)c1O [CBDA, Cannabidiolic acid] | 30 | – | 20 | NE at 100 μM | – | –
3 | CCCCCc1cc(O)c(C/C=C(\C)CCC=C(C)C)c(O)c1C(=O)O [CBGA, Cannabigerolic acid] | 16 | ~100 | 43.5 | – | – | –
4 | C=C(C)[C@@H]1CCC(C)=C[C@H]1c1c(O)cc(CCCCC)cc1O [CBD, Cannabidiol] | 7.4 | 27 | 5.61 | – | – | –
5 | CCCCCc1cc(O)c(C/C=C(\C)CCC=C(C)C)c(O)c1 [CBG, Cannabigerol] | 4.1 | 29 | 14.2 | – | – | –
6 | CC(=O)O[C@@]12CO[C@@H]1C[C@H](O)[C@@]1(C)C(=O)[C@H](O)C3=C(C)[C@@H](OC(=O)[C@H](O)[C@@H](NC(=O)OC(C)(C)C)c4ccccc4)C[C@@](O)([C@@H](OC(=O)c4ccccc4)[C@H]21)C3(C)C [Taxotere, Docetaxel, reference compound] | < 0.001 | < 0.001 | – | – | only 50% | only 50%
